This is an account of results in patent publication US20140308317A1, “Polymeric Compounds And Methods Of Making And Using The Same” (CELLCEUTIX CORPORATION, priority 2012, published 2014).

One may read the MIC50 as an inhibitory concentration at the 50% level, which refers to growth in some studies and to a panel of isolates in others. Broadly, the EC50 is the concentration needed to bring the measured effect to its halfway point.

Series [1] has as its system Klebsiella pneumoniae ATCC 13883. As to the kind of experiment: Minimum Inhibitory Concentration (MIC), modified microbroth dilution. To be noted: K. pneumoniae (13883), overnight incubation (18 hours); for MIC50: Klebsiella pneumoniae, ATCC13883, read-out: MIC50 K. Pnuemnoiae. The class given is cell-based.
Series [2] has as its system Staphylococcus aureus ATCC 27660. The series is described as above. The class given is cell-based. To be noted: S. aureus (27660), overnight incubation (18 hours); for MIC50: Staphylococcus aureus, ATCC27660, read-out: MIC50 S. aureus.
The subject of series [3] is E. Coli ATCC 25922. The description is as above. The series is classed as cell-based. To be noted: E. coli (25922), overnight incubation (18 hours); for MIC50: Escherichia coli, ATCC25922, read-out: MIC50 E. coli.
Series [4] concerns Pseudomonas aeruginosa ATCC 10145. The description is as above. The class given is cell-based. To be noted: P. aeruginosa (10145), overnight incubation (18 hours); for MIC50: Pseudomonas aeruginosa, ATCC10145, read-out: MIC50 P. Aeruginosa.
Series [5] in a line: Cytotoxicity colorimetric (tetrazolium) assay. The series is classed as cell-based, mouse. To be noted: mouse, NIH/3T3 cells (CRL-1658), NIH/3T3 cells; one hour with compound in serum-free media. The protocol:
Cytotoxicity of the compounds was evaluated in a colorimetric assay using a transformed human liver cell line (HepG2, HB-8065) and an embryonic mouse cell line (NIH/3T3 cells, CRL-1658). This assay measures the bioreduction of a novel tetrazolium compound to a soluble formazan product by viable cells. HepG2 cells were seeded in 96 well plates at 2×10^4 cells/well in MEM medium with 10% fetal bovine serum (FBS) 24 hours prior to use. NIH/3T3 cells were seeded in 96 well plates at 2×10^4 cells/well in DMEM medium with 10% bovine calf serum (BCS) 24 hours prior to use. Cell monolayers were rinsed in serum-free media and incubated for one hour with compounds in serum-free media. After incubation, the media is replaced with serum supplemented media and live cells were measured using the Cell Titer 96 Aqueous […] Assay kit (Promega, Madison, Wis.). EC50 values were determined using a four parameter logistic equation: Y=Bottom+(Top-Bottom)/(1+10̂((LogEC50−X)*HillSlope)).
Actual results from a representative cytotoxicity assay are shown below in Table 2. Data is expressed as EC50 in μg/mL.

Series [6] concerns Enterococcus faecalis ATCC 29212. As to the kind of experiment: Minimum Inhibitory Concentration (MIC), modified microbroth dilution. The series is classed as cell-based. Particulars: E. faecalis (29212), overnight incubation (18 hours); for MIC50: Enterococcus faecalis, ATCC29212, read-out: MIC50 E. faecalis. (In general: Dilution methods test growth across graded concentrations, often in twofold steps.)

Molecules are shown by their SMILES. In brackets after ≈: the same amount, converted by molar mass.

Regarding `NCCCN1c2ccccc2Sc2ccc(C(F)(F)F)cc21` [Compound 101], the MIC50 in series [1] is 50 µg/mL (≈ 154 µM); in series [2], 25 µg/mL (≈ 77.1 µM); in series [3], 25 µg/mL (≈ 77.1 µM); in series [4], greater than 100 µg/mL; in series [6], 12.5 µg/mL (≈ 38.5 µM). Further, in series [5], the EC50 at 1 h was 9 µg/mL (≈ 27.7 µM).
Turning to `NCCc1cc(CCN)cc(-c2ccc(-c3cccc(-c4ccc(-c5cc(CCN)cc(CCN)c5)s4)c3)s2)c1` [Compound 138], the MIC50 in series [1] stood at 25 µg/mL (≈ 44.1 µM); in series [2], 0.39 µg/mL (≈ 0.688 µM); in series [3], 12.5 µg/mL (≈ 22.1 µM); in series [4], 12.5 µg/mL (≈ 22.1 µM); in series [6], 1.56 µg/mL (≈ 2.75 µM).
Take `NCC#Cc1cc(C#CCN)cc(-c2cccc(-c3cc(C#CCN)cc(C#CCN)c3)c2)c1` [Compound 124]: the MIC50 in series [1] is greater than 50 µg/mL; in series [2] it was 50 µg/mL (≈ 113 µM); in series [3], 50 µg/mL (≈ 113 µM); in series [4], 50 µg/mL (≈ 113 µM); in series [6], 25 µg/mL (≈ 56.5 µM). Further, the EC50 at 1 h in series [5] is 192 µg/mL (≈ 435 µM).
As for `NCCCN1c2ccccc2Sc2ccc(Cl)cc21` [Compound 103], the MIC50 in series [1] is greater than 100 µg/mL; in series [2], 25 µg/mL (≈ 86 µM); in series [3], greater than 100 µg/mL; in series [4] it was greater than 100 µg/mL; in series [6] it was greater than 100 µg/mL.
Take `NC/C=C/c1cc(/C=C/CN)cc(-c2cccc(-c3cc(/C=C/CN)cc(/C=C/CN)c3)c2)c1` [Compound 117]: the MIC50 in series [1] is greater than 50 µg/mL; in series [2], 12.5 µg/mL (≈ 27.7 µM); in series [3], 25 µg/mL (≈ 55.5 µM); in series [4], 50 µg/mL (≈ 111 µM); in series [6], 50 µg/mL (≈ 111 µM).
As for `N=C(N)NCCCOc1cc(OCCCNC(=N)N)c(-c2cc(F)c(F)c(F)c2)cc1-c1cc(F)c(F)c(F)c1` [Compound 120], in series [5], the EC50 at 1 h was 99 µg/mL (≈ 174 µM).
On to `NCCCN1c2ccc(N)cc2Sc2ccc(C(F)(F)F)cc21` [Compound 104], for which the MIC50 was greater than 100 µg/mL in series [1]; 100 µg/mL (≈ 295 µM) in series [2]; 100 µg/mL (≈ 295 µM) in series [3]; greater than 100 µg/mL in series [4]; greater than 100 µg/mL in series [6].
Consider `N=C(N)NCC#Cc1cc(C#CCNC(=N)N)cc(-c2cccc(-c3cc(C#CCNC(=N)N)cc(C#CCNC(=N)N)c3)c2)c1` [Compound 123], for which the MIC50 in series [1] was 12.5 µg/mL (≈ 20.5 µM); in series [2], 0.78 µg/mL (≈ 1.28 µM); in series [3] it was 3.13 µg/mL (≈ 5.13 µM); in series [4], 6.25 µg/mL (≈ 10.2 µM); in series [6], 0.78 µg/mL (≈ 1.28 µM). In series [5], the EC50 at 1 h turned out to be 115 µg/mL (≈ 188 µM).
With `NCCCCn1cc(-c2cccc(-c3cn(CCCCN)nn3)c2)nn1` [Compound 107], the “MIC50 K. Pnuemnoiae” value in series [1] is greater than 100 µg/mL. For the same molecule, the “MIC50 S. aureus” value in series [2] is greater than 100 µg/mL. The “MIC50 E. coli” value in series [3] was greater than 100 µg/mL. Moreover, in series [4], the “MIC50 P. Aeruginosa” value is greater than 100 µg/mL. The “MIC50 E. faecalis” value in series [6] was greater than 100 µg/mL.
`NCCCn1c2ccccc2c2ccccc21` [Compound 105]: in series [1], the “MIC50 K. Pnuemnoiae” value was greater than 100 µg/mL. Moreover, the “MIC50 S. aureus” value in series [2] was greater than 100 µg/mL. For the same molecule, in series [3], the “MIC50 E. coli” value was greater than 100 µg/mL. For the same molecule, the “MIC50 P. Aeruginosa” value in series [4] was greater than 100 µg/mL. For the same molecule, the “MIC50 E. faecalis” value in series [6] was greater than 100 µg/mL.
As for `N=C(N)NCCC#Cc1cc(-c2cc(OCCCNC(=N)N)cc(-c3cc(C#CCCNC(=N)N)cc(C(F)(F)F)c3)c2)cc(C(F)(F)F)c1` [Compound 121], the EC50 at 1 h in series [5] turned out to be 37 µg/mL (≈ 52.9 µM).
Consider `NCCCN1c2ccc(NC(=O)Nc3ccc4c(c3)Sc3ccc(C(F)(F)F)cc3N4CCCN)cc2Sc2ccc(C(F)(F)F)cc21` [Compound 143], for which the MIC50 in series [1] worked out at 3.13 µg/mL (≈ 4.44 µM); in series [2] it was 0.78 µg/mL (≈ 1.11 µM); in series [3], 0.78 µg/mL (≈ 1.11 µM); in series [4], 12.5 µg/mL (≈ 17.7 µM); in series [6] it was 1.56 µg/mL (≈ 2.21 µM).
`NCCn1cc(-c2cccc(-c3cn(CCN)nn3)c2)nn1` [Compound 109]: the “MIC50 K. Pnuemnoiae” value in series [1] is greater than 100 µg/mL. Besides, the “MIC50 S. aureus” value in series [2] is greater than 100 µg/mL. For the same molecule, the “MIC50 E. coli” value in series [3] was greater than 100 µg/mL. Besides, the “MIC50 P. Aeruginosa” value in series [4] is greater than 100 µg/mL. Moreover, in series [6], the “MIC50 E. faecalis” value was greater than 100 µg/mL.
